In patent publication US11186581B2, “2-(1,3-dimethyl-2,6-dioxo-1,2,3,6-tetrahydro-7H-purin-7-yl)-N-(6-(2-hydroxyphenyl)pyridazin-3-yl)acetamide as a Wnt pathway modulator” (Agency for Science, Technology and Research, priority 2017, dated 2021):
Like-named read-outs stand apart in the source and are kept apart here.

Tests used:
[1] = Plasma pharmacokinetics after single intravenous and oral dose; assay type: in vivo, male BALB/c mice; settings: male, BALB/c, mouse; for concentration at 24 hr: average of two values
Procedure: The objective of this study was to investigate the plasma pharmacokinetics of Compound 1 in male BALB/c mice following a single intravenous and oral dose administration. A group of eighteen male mice were divided in to two groups as Group 1 and Group 2 with nine mice in each group.
Animals in Group 1 were administered intravenously with Compound 1 solution formulation in 7.5% NMP, 5% Solutol HS-15 and 87.5% normal Saline at a dose of 1 mg/kg.
Animals in Group 2 were administered orally with Compound 1 solution formulation in 7.5% NMP, 5% Solutol HS-15 and 87.5% normal Saline at a dose of 5 mg/kg.
Blood samples (approximately 60 μL) were collected under light isoflurane anesthesia from retro orbital plexus at predose, 0.08, 0.25, 0.5, 1, 2, 4, 8 and 24 hr (IV) and predose, 0.25, 0.5, 1, 2, 4, 6, 8 and 24 hr (PO). During each sampling point, blood samples were collected in labeled pre-chilled tubes containing K2EDTA (20% K2EDTA solution) as an anticoagulant and protease inhibitor (10 μL of 10× solution/100 μL of blood). Low temperature was maintained till storage of plasma at −70° C. Plasma samples were separated by centrifugation of whole blood and stored below −70° C. until bioanalysis. All samples were processed for analysis by protein precipitation using acetonitrile (ACN) and analyzed with fit-for-purpose LC/MS/MS method (Lower limit of quantitation (LLOQ: 1.02 ng/mL). Pharmacokinetic parameters were calculated using the non-compartmental analysis tool of Phoenix WinNonlin® (Version 6.3). The overall pharmacokinetic parameters are summarized below:
The objective of the study is to determine the plasma pharmacokinetics of Compound 1 in male BALB/c mice following a single intravenous (1 mg/kg) and oral (5 mg/kg) administration in presence of a protease inhibitor.
(§1) A group of eighteen male mice were divided in to two groups as Group 1 and Group 2 with nine mice in each group. Animals in Group 1 were administered intravenously with Compound 1 solution formulation in 7.5% NMP, 5% Solutol HS-15 and 87.5% normal Saline at a dose of 1 mg/kg. Animals in Group 2 were administered orally with Compound 1 solution formulation in 7.5% NMP, 5% Solutol HS and 87.5% normal Saline at a dose of 5 mg/kg.
The dosing volume administered was 5 mL/kg for intravenous and 10 mL/kg for oral administration.
Blood samples (approximately 60 μL) were collected from retro-orbital plexus of three mice at each time point [predose, 0.08, 0.25, 0.5, 1, 2, 4, 8 and 24 hr (IV) and predose, 0.25, 0.5, 1, 2, 4, 6, 8 and 24 hr (PO)]. During each sampling point, blood samples were collected in labeled pre-chilled tubes containing K2EDTA (20% K2EDTA solution) as an anticoagulant and protease inhibitor (10 μL of 10× solution/100 μL of blood). Low temperature was maintained till storage of plasma at −70° C. Plasma was immediately harvested from the blood by centrifugation at 4000 rpm for 10 min at 4±2° C. and stored below −70° C. until bioanalysis. Preparation of protease inhibitor solution: One tablet of sigmaFAST (Product Code: 58820) was reconstituted into 10 mL of Milli-Q water to prepare 10× solution.
Concentrations of Compound 1 in mouse plasma samples were determined by fit-for-purpose LC-MS/MS method. The sample processing and extraction procedure, chromatographic and mass spectrometric conditions are provided below:
A 25 μL of study sample (DF was applied for few samples) or spiked plasma calibration standard was added to individual pre-labeled micro-centrifuge tubes followed by 100 μL of internal standard prepared in acetonitrile (Glipizide, 500 ng/mL) was added except for blank, where 100 μL of acetonitrile was added. Samples were vortexed for 5 minutes. Samples were centrifuged for 10 minutes at a speed of 4000 rpm at 4° C. Following centrifugation, 100 μL of clear supernatant was transferred in 96 well plates and analyzed using LC-MS/MS.
Non-Compartmental-Analysis tool of Phoenix WinNonlin® (Version 6.3) was used to assess the pharmacokinetic parameters. […]

[2] = Clinical observations after intravenous and oral dose administration; assay type: in vivo, male BALB/c mice; settings: after IV 1 mg/kg and PO 5 mg/kg single dose
Procedure: as §1

[3] = plasma, iv, 1 mg/kg, IV 1 mg/kg, read-out: Plasma concentration, Mean
[4] = plasma, po, 5 mg/kg, PO 5 mg/kg, read-out: Plasma concentration, Mean
[5] = plasma, po, 5 mg/kg, PO 5 mg/kg, read-out: Plasma concentration, individual animals

- concentration at 4 hr [1, 3]: 0.0347 µg/mL
- concentration at 4 hr ([1]; plasma, iv, 1 mg/kg, IV 1 mg/kg, read-out: Plasma concentration, individual animals): 0.0392 µg/mL
- concentration at 8 hr [1, 3]: 0.0145 µg/mL
- concentration at 24 hr ([1]; plasma, iv, 1 mg/kg, IV 1 mg/kg): 0.00123 µg/mL
- concentration at 0.25 hr [1, 4]: 1.86 µg/mL
- concentration at 0.25 hr [1, 5]: 1.69 µg/mL
- concentration at 0.5 hr ([1]; plasma, po, 5 mg/kg, PO 5 mg/kg, 0.5 hr, read-out: Plasma concentration, Mean): 1.71 µg/mL
- concentration at 1 hr [1, 4]: 0.457 µg/mL
- concentration at 1 hr [1, 5]: 0.462 µg/mL
- concentration at 2 hr [1, 4]: 0.411 µg/mL
- concentration at 2 hr [1, 5]: 0.535 µg/mL
- concentration at 4 hr [1, 4]: 0.217 µg/mL
- concentration at 6 hr [1, 4]: 0.0918 µg/mL
- concentration at 6 hr [1, 5]: 0.0832 µg/mL
- concentration at 8 hr [1, 4]: 0.0458 µg/mL
- concentration at 8 hr [1, 5]: 0.043 µg/mL
- concentration at 24 hr ([1]; plasma, po, 5 mg/kg, PO 5 mg/kg): 0.0018 µg/mL
- half-life ([1]; plasma, IV 1 mg/kg, terminal elimination half-life, read-out: T1/2 (converted)): 4.24 h
- Vd ([1]; plasma, IV 1 mg/kg, read-out: Vss): 1.2 L/kg
- Tmax ([1]; plasma, PO 5 mg/kg): 0.25 h
- bioavailability ([1]; plasma, PO 5 mg/kg vs IV 1 mg/kg, solution, from AUClast, read-out: % F (oral bioavailability)): 42%
- half-life ([1]; plasma, PO 5 mg/kg, read-out: T1/2 (expressed as T1/2Z) (converted)): 3.26 h
- AUC(0-inf) ([1]; IV 1 mg/kg, plasma): 1.49 µg·h/mL
- AUC(0-t) ([1]; IV 1 mg/kg, plasma): 1.48 µg·h/mL
- clearance ([1]; IV 1 mg/kg, plasma clearance): 0.672 L/h/kg
- C0 ([1]; IV 1 mg/kg, plasma, read-out: C0 (back extrapolated conc.)): 2.75 µg/mL
- AUC(0-inf) ([1]; PO 5 mg/kg, plasma): 3.12 µg·h/mL
- AUC(0-t) ([1]; PO 5 mg/kg, plasma): 3.11 µg·h/mL
- Cmax ([1]; PO 5 mg/kg, plasma): 1.86 µg/mL
- Clinical signs [2]: normal and without any clinical signs
Structure (SMILES): Cn1c(=O)c2c(ncn2CC(=O)Nc2ccc(-c3ccccc3O)nn2)n(C)c1=O [Compound 1, 2-(1,3-dimethyl-2,6-dioxo-1,2,3,6-tetrahydro-7H-purin-7-yl)-N-(6-(2-hydroxyphenyl)pyridazin-3-yl)acetamide]
